This passage reports IC50 results from patent US8614201B2 (Janssen Pharmaceutica NV, priority 2009, dated 2013).

The structures appear in SMILES notation.

For this assay, the target named is Human TRPA1 (Homo sapiens, UniProt O75762). Description: Assay 1: In vitro cellular testing of TRPA1 modulation (CHO-TREx, Fluo-3 calcium fluorescence, AITC agonist). The assay is classed as cell-based. Also noted: expressed in transfected cells; host or cells: CHO-TREx cells (Invitrogen), vector pcDNA4/TO. As to conditions: CHO-TREx cells expressing human TRPA1; Fluo-3 fluorescence (FLIPR/Tetra); agonist 15 μM allyl isothiocyanate (AITC); 30 minute antagonist incubation. The procedure: Assay 1: In Vitro Cellular Testing of TRPA1 Modulation
Human TRPA1, sequence (O75762 whole entry): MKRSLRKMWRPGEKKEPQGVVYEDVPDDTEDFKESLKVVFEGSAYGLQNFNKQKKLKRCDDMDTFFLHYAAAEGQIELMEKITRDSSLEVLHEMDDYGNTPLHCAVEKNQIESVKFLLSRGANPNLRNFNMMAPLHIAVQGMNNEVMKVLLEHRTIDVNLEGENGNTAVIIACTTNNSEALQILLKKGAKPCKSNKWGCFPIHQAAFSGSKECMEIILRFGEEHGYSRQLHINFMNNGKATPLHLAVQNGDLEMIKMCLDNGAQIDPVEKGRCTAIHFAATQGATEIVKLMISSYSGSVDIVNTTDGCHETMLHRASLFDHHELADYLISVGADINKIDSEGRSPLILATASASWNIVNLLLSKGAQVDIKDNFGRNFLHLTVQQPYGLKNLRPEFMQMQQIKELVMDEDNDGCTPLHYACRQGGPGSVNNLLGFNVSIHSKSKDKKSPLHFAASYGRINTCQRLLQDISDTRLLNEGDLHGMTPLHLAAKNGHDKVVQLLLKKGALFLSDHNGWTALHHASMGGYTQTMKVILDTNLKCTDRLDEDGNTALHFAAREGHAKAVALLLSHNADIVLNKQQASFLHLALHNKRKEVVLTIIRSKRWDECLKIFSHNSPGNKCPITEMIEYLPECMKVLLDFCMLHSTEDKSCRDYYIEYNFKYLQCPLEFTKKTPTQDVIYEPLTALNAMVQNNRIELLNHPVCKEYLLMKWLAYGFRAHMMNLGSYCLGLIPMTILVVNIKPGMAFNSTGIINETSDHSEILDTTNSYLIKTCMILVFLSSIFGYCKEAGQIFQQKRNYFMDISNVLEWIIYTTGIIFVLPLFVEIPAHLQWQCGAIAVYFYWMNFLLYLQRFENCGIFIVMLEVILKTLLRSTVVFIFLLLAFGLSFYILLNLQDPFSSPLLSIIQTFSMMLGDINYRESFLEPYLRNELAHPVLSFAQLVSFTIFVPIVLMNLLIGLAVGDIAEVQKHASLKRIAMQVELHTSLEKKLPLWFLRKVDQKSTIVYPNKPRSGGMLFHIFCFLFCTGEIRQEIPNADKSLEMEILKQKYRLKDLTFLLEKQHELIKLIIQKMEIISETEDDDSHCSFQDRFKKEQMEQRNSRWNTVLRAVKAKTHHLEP
Human TRPA1 (NCBI accession number NM_007332.1) was cloned into pcDNA4/TO. CHO-TREx cells (Invitrogen, Carlsbad, Calif.) were stably transfected with pcDNA4/TO-TRPA1 using lipofection to generate a clonal cell line that expressed human TRPA1 in a tetracycline-inducible manner. Culture medium used was Ham's F-12 supplemented with 10% fetal bovine serum, 2 mM L-glutamine, 5 μg/ml blasticidin and 200 μg/ml zeocin. Cells were seeded in black-walled clear-bottom 96-well plates at a density of 50,000 cells per well and cultured overnight at 37° C. with 5% CO2 in culture medium supplemented with 1 μg/ml tetracycline. On the day of the experiment, cells were washed 3 times with HEPES buffered saline (in mM: NaCl 137, MgCl2 0.5, KCl 2, dextrose 5, CaCl2 2 and HEPES 10; pH 7.4). Cells were then loaded with calcium-sensitive fluorescent dye by incubation in the presence of 4 μM Fluo-3 AM (TefLabs, Austin, Tex.) at room temperature in the dark for 60 minutes. After incubation with dye, cells were washed in assay buffer and, if appropriate, antagonists were added at this time. Following a further 30 minute incubation, cells were assayed using a Fluorometric Imaging Plate Reader (FLIPR™) or a Tetra (both manufactured by Molecular Devices, CA) to simultaneously monitor Fluo-3 fluorescence in all wells (λexcitation=488 nm, λemission=540 nm). Changes in fluorescence were monitored for 3 minutes after the addition of 15 μM allyl isothiocyanate (AITC) as an agonist. Concentration-dependence of receptor blocking was determined by exposing each well of cells in duplicate rows of a 96-well plate to a serial dilution of test compound. The concentration series usually started at 10 μM with a three-fold serial decrement in concentration. The magnitude of the response to agonist challenge was determined by measuring the fluorescence before and 3 minutes after the addition of the agonist. The degree of blocking was determined by comparing the response to that of negative (no added antagonist) and positive (10 μM ruthenium red) control wells. Data were analyzed using a non-linear regression program (Origin; OriginLab, MA) to fit the concentration-response data to a Hill function. Antagonist potencies were determined as the concentration required to produce 50% reduction in the response as compared to the negative and positive controls.
Usually IC50 stands for the midpoint of a concentration-inhibition curve. `CC(NC(=O)[C@@H]1CCCN1S(=O)(=O)c1ccc(F)cc1)c1cc(-c2ccc(C(F)(F)F)cc2)ncn1` (single isomer, unassigned) [Example 181, (1S*,2S)-1-(4-Fluoro-benzenesulfonyl)-pyrrolidine-2-carboxylic acid {1-[6-(4-trifluoromethyl-phenyl)-pyrimidin-4-yl]-ethyl}-amide]: the IC50 turned out to be 602 nM.

Regarding `CC(NC(=O)[C@@H]1CCCN1S(=O)(=O)c1ccc(F)cc1)c1cc(-c2ccc(C(F)(F)F)cc2)ncn1` (single isomer, unassigned) [Example 182, (1R*,2S)-1-(4-Fluoro-benzenesulfonyl)-pyrrolidine-2-carboxylic acid {1-[6-(4-trifluoromethyl-phenyl)-pyrimidin-4-yl]-ethyl}-amide], the IC50 was 923 nM.

As to `CC(C)CN1CCN(c2nc(CNC(=O)[C@@H]3CCCN3S(=O)(=O)c3ccc(F)cc3)cc(-c3ccc(C(F)(F)F)cc3)n2)CC1` [Example 1, 1-(4-Fluoro-benzenesulfonyl)-pyrrolidine-2S-carboxylic acid [2-(4-isobutyl-piperazin-1-yl)-6-(4-trifluoromethyl-phenyl)-pyrimidin-4-ylmethyl]-amide], the IC50 turned out to be 36 nM.

As for `COc1nc(CNC(=O)[C@@H]2CCCN2S(=O)(=O)c2ccc(F)cc2)cc(-c2ccc(C(F)(F)F)cc2)n1` [Example 2, 1-(4-Fluoro-benzenesulfonyl)-pyrrolidine-2S-carboxylic acid [2-methoxy-6-(4-trifluoromethyl-phenyl)-pyrimidin-4-ylmethyl]-amide], the IC50 is 40 nM.

As to `O=C(NCc1cc(-c2ccc(C(F)(F)F)cc2)nc(-c2cccnc2)n1)[C@@H]1CCCN1S(=O)(=O)c1ccc(F)cc1` [Example 3, 1-(4-Fluoro-benzenesulfonyl)-pyrrolidine-2S-carboxylic acid [2-pyridin-3-yl-6-(4-trifluoromethyl-phenyl)-pyrimidin-4-ylmethyl]-amide], the IC50 worked out at 108 nM.

Turning to `O=C(NCc1cc(-c2ccc(C(F)(F)F)cc2)nc(-c2ccc(C(F)(F)F)cc2)n1)[C@@H]1CCCN1S(=O)(=O)c1ccc(F)cc1` [Example 4, 1-(4-Fluoro-benzenesulfonyl)-pyrrolidine-2S-carboxylic acid [2,6-bis-(4-trifluoromethyl-phenyl)-pyrimidin-4-ylmethyl]-amide], the IC50 amounted to 3 nM.

On to `O=C(NCc1cc(-c2ccc(C(F)(F)F)cc2)nc(-c2cccc(C(F)(F)F)c2)n1)[C@@H]1CCCN1S(=O)(=O)c1ccc(F)cc1` [Example 5, 1-(4-Fluoro-benzenesulfonyl)-pyrrolidine-2S-carboxylic acid [2-(3-trifluoromethyl-phenyl)-6-(4-trifluoromethyl-phenyl)-pyrimidin-4-ylmethyl]-amide], for which the IC50 came out at 9 nM.

With `O=C(NCc1cc(-c2ccc(C(F)(F)F)cc2)nc(-c2ccccc2C(F)(F)F)n1)[C@@H]1CCCN1S(=O)(=O)c1ccc(F)cc1` [Example 6, 1-(4-Fluoro-benzenesulfonyl)-pyrrolidine-2S-carboxylic acid [2-(2-trifluoromethyl-phenyl)-6-(4-trifluoromethyl-phenyl)-pyrimidin-4-ylmethyl]-amide], the IC50 was 11 nM.

Turning to `O=C(NCc1cc(-c2ccc(C(F)(F)F)cc2)nc(-c2ccncc2)n1)[C@@H]1CCCN1S(=O)(=O)c1ccc(F)cc1` [Example 7, 1-(4-Fluoro-benzenesulfonyl)-pyrrolidine-2S-carboxylic acid [2-pyridin-4-yl-6-(4-trifluoromethyl-phenyl)-pyrimidin-4-ylmethyl]-amide], the IC50 is 229 nM.

`Nc1nc(CNC(=O)[C@@H]2CCCN2S(=O)(=O)c2ccc(F)cc2)cc(-c2ccc(C(F)(F)F)cc2)n1` [Example 8, 1-(4-Fluoro-benzenesulfonyl)-pyrrolidine-2S-carboxylic acid [2-amino-6-(4-trifluoromethyl-phenyl)-pyrimidin-4-ylmethyl]-amide]: the IC50 came to 475 nM.

In the case of `CC(C)N1CCN(c2nc(CNC(=O)[C@@H]3CCCN3S(=O)(=O)c3ccc(F)cc3)cc(-c3ccc(C(F)(F)F)cc3)n2)CC1` [Example 9, 1-(4-Fluoro-benzenesulfonyl)-pyrrolidine-2S-carboxylic acid [2-(4-isopropyl-piperazin-1-yl)-6-(4-trifluoromethyl-phenyl)-pyrimidin-4-ylmethyl]-amide], the IC50 amounted to 542 nM.

Regarding `CN(C)c1nc(CNC(=O)[C@@H]2CCCN2S(=O)(=O)c2ccc(F)cc2)cc(-c2ccc(C(F)(F)F)cc2)n1` [Example 10, 1-(4-Fluoro-benzenesulfonyl)-pyrrolidine-2S-carboxylic acid [2-dimethylamino-6-(4-trifluoromethyl-phenyl)-pyrimidin-4-ylmethyl]-amide], the IC50 worked out at 30 nM.

Take `O=C(NCc1cc(-c2ccc(C(F)(F)F)cc2)ncn1)[C@@H]1CCCN1S(=O)(=O)c1ccc(F)cc1` [Example 11, 1-(4-Fluoro-benzenesulfonyl)-pyrrolidine-2S-carboxylic acid [6-(4-trifluoromethyl-phenyl)-pyrimidin-4-ylmethyl]-amide]: the IC50 was 65 nM.

With `CN1CCC(CNc2nc(CNC(=O)[C@@H]3CCCN3S(=O)(=O)c3ccc(F)cc3)cc(-c3ccc(C(F)(F)F)cc3)n2)C1` (stereo partly drawn) [Example 12, 1-(4-Fluoro-benzenesulfonyl)-pyrrolidine-2S-carboxylic acid [2-[(1-methyl-pyrrolidin-3-ylmethyl)-amino]-6-(4-trifluoromethyl-phenyl)-pyrimidin-4-ylmethyl]-amide], the IC50 came to 1090 nM.

`CCC(CC)N1CCN(c2nc(CNC(=O)[C@@H]3CCCN3S(=O)(=O)c3ccc(F)cc3)cc(-c3ccc(C(F)(F)F)cc3)n2)CC1` [Example 13, 1-(4-Fluoro-benzenesulfonyl)-pyrrolidine-2S-carboxylic acid [2-[4-(1-ethyl-propyl)-piperazin-1-yl]-6-(4-trifluoromethyl-phenyl)-pyrimidin-4-ylmethyl]-amide]: the IC50 was 90 nM.

Turning to `CNc1nc(CNC(=O)[C@@H]2CCCN2S(=O)(=O)c2ccc(F)cc2)cc(-c2ccc(C(F)(F)F)cc2)n1` [Example 14, 1-(4-Fluoro-benzenesulfonyl)-pyrrolidine-2S-carboxylic acid [2-methylamino-6-(4-trifluoromethyl-phenyl)-pyrimidin-4-ylmethyl]-amide], the IC50 is 21 nM.

For the compound `CCN1CCN(c2nc(CNC(=O)[C@@H]3CCCN3S(=O)(=O)c3ccc(F)cc3)cc(-c3ccc(C(F)(F)F)cc3)n2)CC1` [Example 15, 1-(4-Fluoro-benzenesulfonyl)-pyrrolidine-2S-carboxylic acid [2-(4-ethyl-piperain-1-yl)-6-(4-trifluoromethyl-phenyl)-pyrimidin-4-ylmethyl]-amide], the IC50 came out at 418 nM.

Take `CC(Nc1nc(CNC(=O)[C@@H]2CCCN2S(=O)(=O)c2ccc(F)cc2)cc(-c2ccc(C(F)(F)F)cc2)n1)c1ccccn1` (stereo partly drawn) [Example 16, 1-(4-Fluoro-benzenesulfonyl)-pyrrolidine-2S-carboxylic acid [2-(1-pyridin-2-yl-ethylamino)-6-(4-trifluoromethyl-phenyl)-pyrimidin-4-ylmethyl]-amide]: the IC50 was 34 nM.

As to `CN(C)CCN1CCN(c2nc(CNC(=O)[C@@H]3CCCN3S(=O)(=O)c3ccc(F)cc3)cc(-c3ccc(C(F)(F)F)cc3)n2)CC1` [Example 17, 1-(4-Fluoro-benzenesulfonyl)-pyrrolidine-2S-carboxylic acid [2-[4-(2-dimethylamino-ethyl)-piperazin-1-yl]-6-(4-trifluoromethyl-phenyl)-pyrimidin-4-ylmethyl]-amide], the IC50 worked out at 2080 nM.

For `CN(C)CCN(C)c1nc(CNC(=O)[C@@H]2CCCN2S(=O)(=O)c2ccc(F)cc2)cc(-c2ccc(C(F)(F)F)cc2)n1` [Example 18, 1-(4-Fluoro-benzenesulfonyl)-pyrrolidine-2S-carboxylic acid [2-[(2-dimethylamino-ethyl)-methyl-amino]-6-(4-trifluoromethyl-phenyl)-pyrimidin-4-ylmethyl]-amide], the IC50 is 1850 nM.

On to `O=C(NCc1cc(-c2ccc(C(F)(F)F)cc2)nc(N2CCN(Cc3cccnc3)CC2)n1)[C@@H]1CCCN1S(=O)(=O)c1ccc(F)cc1` [Example 19, 1-(4-Fluoro-benzenesulfonyl)-pyrrolidine-2S-carboxylic acid [2-(4-pyridin-3-ylmethyl-piperazin-1-yl)-6-(4-trifluoromethyl-phenyl)-pyrimidin-4-ylmethyl]-amide], for which the IC50 was determined as 16 nM.
